Experimental data: the NIST ThermoML archive (doi:10.1021/je049762q)

Assay: molar heat capacity at constant pressure
Settings: 101.33 kPa

Clc1cc(Cl)cc(Cl)c1 [1,3,5-trichlorobenzene]
molar heat capacity at constant pressure [J/K/mol]
Settings	Crystal	Liquid
171.08 K	107.71	–
172.15 K	108.11	–
174.44 K	109.1	–
174.82 K	109.23	–
177.47 K	110.35	–
177.76 K	110.52	–
180 K	111.41	–
180.1 K	111.45	–
181.06 K	111.92	–
182.71 K	112.52	–
184.34 K	113.28	–
185.3 K	113.6	–
187.58 K	114.63	–
187.87 K	114.66	–
190 K	115.57	–
190.43 K	115.78	–
190.81 K	115.98	–
192.97 K	116.82	–
194.01 K	117.3	–
195.49 K	117.83	–
197.19 K	118.6	–
198 K	118.86	–
200 K	119.79	–
200.35 K	119.94	–
202.96 K	120.92	–
203.48 K	121.26	–
205.42 K	121.91	–
206.6 K	122.49	–
207.87 K	122.92	–
209.7 K	123.75	–
210 K	123.84	–
210.3 K	123.89	–
212.71 K	124.89	–
212.77 K	125.04	–
215.12 K	125.93	–
215.83 K	126.21	–
217.51 K	126.8	–
218.86 K	127.47	–
219.88 K	127.77	–
220 K	127.82	–
221.88 K	128.7	–
222.25 K	128.72	–
224.6 K	129.66	–
224.87 K	129.89	–
226.94 K	130.61	–
227.85 K	131.11	–
229.27 K	131.59	–
230 K	131.95	–
230.81 K	132.32	–
231.58 K	132.53	–
233.76 K	133.48	–
236.18 K	134.38	–
236.69 K	134.73	–
238.46 K	135.33	–
239.6 K	135.87	–
240 K	136.02	–
240.73 K	136.28	–
242.5 K	137.03	–
242.99 K	137.17	–
245.24 K	138.06	–
245.38 K	138.2	–
247.48 K	138.95	–
248.24 K	139.34	–
249.71 K	139.83	–
250 K	139.96	–
251.09 K	140.46	–
251.93 K	140.7	–
253.93 K	141.6	–
256.34 K	142.49	–
256.76 K	142.74	–
258.53 K	143.37	–
259.57 K	143.79	–
260 K	143.95	–
260.71 K	144.19	–
262.36 K	144.92	–
262.88 K	145.05	–
265.05 K	145.93	–
265.15 K	146.04	–
267.2 K	146.81	–
267.91 K	147.2	–
269.34 K	147.62	–
270 K	147.9	–
270.67 K	148.17	–
271.48 K	148.45	–
273.41 K	149.19	–
275.71 K	150.21	–
276.13 K	150.38	–
277.82 K	150.9	–
278.84 K	151.41	–
279.93 K	151.88	–
280 K	151.91	–
281.54 K	152.27	–
282.02 K	152.47	–
284.11 K	153.34	–
286.19 K	153.9	–
288.26 K	154.74	–
290 K	155.34	–
290.32 K	155.45	–
292.38 K	156.18	–
294.42 K	157	–
295.88 K	157.42	–
296.46 K	157.62	–
298.15 K	158.32	–
298.44 K	158.35	–
300 K	159.02	–
300.52 K	159.26	–
300.98 K	159.48	–
303.51 K	160.28	–
306.03 K	161.24	–
306.98 K	161.57	–
308.54 K	162.23	–
310 K	162.81	–
310.04 K	162.82	–
311.04 K	163.32	–
311.61 K	163.35	–
313.11 K	164.04	–
313.53 K	164.32	–
314.66 K	164.78	–
316 K	165.48	–
317.72 K	166.19	–
318.47 K	166.69	–
320 K	167.31	–
320.77 K	167.5	–
320.93 K	167.74	–
323.38 K	168.94	–
323.83 K	169.15	–
325.82 K	170.31	–
326.88 K	171.2	–
328.25 K	171.54	–
330 K	172.45	–
335.92 K	175.78	197.88
338.89 K	–	198.6
340 K	–	198.76
341.83 K	–	199.12
341.91 K	–	199.27
344.76 K	–	199.68
344.94 K	–	199.89
347.69 K	–	200.32
347.97 K	–	200.6
350 K	–	200.94
350.61 K	–	200.99
350.99 K	–	201.16
353.52 K	–	201.63
354 K	–	201.88
356.43 K	–	202.27
357.01 K	–	202.62
359.34 K	–	202.96
360 K	–	203.18
360.01 K	–	203.24
362.24 K	–	203.68
363.01 K	–	203.85
365.13 K	–	204.35
366 K	–	204.62
368.02 K	–	204.99
368.98 K	–	205.5
370 K	–	205.46
370.9 K	–	205.72
371.95 K	–	206
373.78 K	–	206.29
374.93 K	–	206.68
376.65 K	–	206.96
377.9 K	–	207.35
379.51 K	–	207.51
380 K	–	207.79
380.86 K	–	207.96
